Experimental data from ChEMBL document CHEMBL5726855, “Substituted benzylindazoles for use as Bub1 kinase inhibitors in the treatment of hyperproliferative diseases” (2019).

Molecular target: Mitotic checkpoint serine/threonine-protein kinase BUB1 (Homo sapiens, UniProt O43683)
Assay: To this end, 100-fold concentrated compound solutions (in DMSO) were previously prepared by serial dilution (1:3.4) of 2 mM stocks in a clear low volume 384-well source microtiter plate (Greiner Bio-One, Frickenhausen, Germany), from which 50 nl of compounds were transferred into a black low volume test microtiter plate from the same supplier. […] The resulting mixture (5 μl final volume) was incubated at 22° C. during 60 min., and the reaction was stopped by the addition of 5 μl of an aqueous EDTA-solution (50 mM EDTA, in 100 mM HEPES pH 7.5 and 0.2% (w/v) bovine serum albumin) which also contained the TR-FRET detection reagents (0.2 μM streptavidin-XL665 [Cisbio Bioassays, Codolet, France] and 1 nM anti-phosho-Serine antibody [Merck Millipore, cat. #35-001] and 0.4 nM LANCE EU-W1024 labeled anti-mouse IgG antibody [Perkin-Elmer, product no. AD0077, alternatively a Terbium-cryptate-labeled anti-mouse IgG antibody from Cisbio Bioassays can be used]). The stopped reaction mixture was further incubated 1 h at 22° C. in order to allow the formation of complexes between peptides and detection reagents. Subsequently, the amount of product was evaluated by measurement of the resonance energy transfer from the Eu-chelate-antlbody complex recognizing the Phosphoserlne residue to the streptavidin-XL665 bound to the biotin moiety of the peptide. […] IC50 values were calculated by fitting the normalized inhibition data to a 4-parameter logistic equation (Minimum, Maximum, IC50, Hill; Y=Max+(Min−Max)/(1+(X/IC50)Hill)) using a Bayer-proprietary analysis software.

Sequence of Mitotic checkpoint serine/threonine-protein kinase BUB1 (O43683 whole entry): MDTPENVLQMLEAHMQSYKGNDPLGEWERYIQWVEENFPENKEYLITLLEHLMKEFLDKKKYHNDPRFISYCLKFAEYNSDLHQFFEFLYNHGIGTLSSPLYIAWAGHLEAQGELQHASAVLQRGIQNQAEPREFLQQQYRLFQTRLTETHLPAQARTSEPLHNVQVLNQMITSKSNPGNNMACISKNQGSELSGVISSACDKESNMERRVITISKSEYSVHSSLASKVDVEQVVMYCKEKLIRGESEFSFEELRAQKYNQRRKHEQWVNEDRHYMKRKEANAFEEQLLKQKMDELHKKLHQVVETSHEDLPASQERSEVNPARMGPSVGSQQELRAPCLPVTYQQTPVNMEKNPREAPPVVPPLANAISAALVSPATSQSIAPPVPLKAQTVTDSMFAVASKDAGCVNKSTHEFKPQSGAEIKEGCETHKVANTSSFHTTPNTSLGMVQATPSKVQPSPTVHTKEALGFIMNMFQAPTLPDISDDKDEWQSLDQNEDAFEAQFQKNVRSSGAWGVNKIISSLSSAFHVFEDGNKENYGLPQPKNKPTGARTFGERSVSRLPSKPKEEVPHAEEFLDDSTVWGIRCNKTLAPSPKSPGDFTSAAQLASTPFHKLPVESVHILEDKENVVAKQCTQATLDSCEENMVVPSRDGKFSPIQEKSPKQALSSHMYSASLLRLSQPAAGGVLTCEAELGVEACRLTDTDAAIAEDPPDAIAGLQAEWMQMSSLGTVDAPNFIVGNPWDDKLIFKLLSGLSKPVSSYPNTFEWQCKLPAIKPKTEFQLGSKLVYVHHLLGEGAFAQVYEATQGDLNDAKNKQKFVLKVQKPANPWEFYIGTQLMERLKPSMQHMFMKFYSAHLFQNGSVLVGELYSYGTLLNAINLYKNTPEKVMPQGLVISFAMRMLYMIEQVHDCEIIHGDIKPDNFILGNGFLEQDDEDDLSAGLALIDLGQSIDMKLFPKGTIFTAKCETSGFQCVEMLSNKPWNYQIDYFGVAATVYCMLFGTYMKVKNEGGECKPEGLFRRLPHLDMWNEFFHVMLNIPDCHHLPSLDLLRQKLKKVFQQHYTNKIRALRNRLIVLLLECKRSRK

| SMILES | IC50 [nM] |
| --- | --- |
| COc1cnc(-c2nn(Cc3ccc(C#N)cc3F)c3ccccc23)nc1N(Cc1ccc(C#N)cc1F)c1ccncc1 | 1100 |
| CCOc1cc(F)c(Cn2nc(-c3ncc(OCCSC)c(Nc4ccncc4)n3)c3ccccc32)c(F)c1 | 14 |
| CCOc1cc(F)c(Cn2nc(-c3ncc(OCCOCCO)c(Nc4ccncc4)n3)c3ccccc32)c(F)c1 | 7.4 |

Second part, the compound after the results:

| IC50 [nM] | SMILES |
| --- | --- |
| 890 | COc1cnc(-c2nn(Cc3c(F)cc(F)cc3F)c3ccccc23)nc1N(Cc1c(F)cc(F)cc1F)c1ccncc1 |
| 3200 | COc1cnc(-c2nn(Cc3c(F)c(F)c(OCC(F)(F)F)c(F)c3F)c3ccccc23)nc1N(Cc1c(F)c(F)c(OCC(F)(F)F)c(F)c1F)c1ccncc1 |
